Read-outs that look alike come from different tables or passages of the source.
Tests used:
[1] = tested on: 20-HETE formation (CYP4) in RLM; test: Inhibition of 20-HETE formation at 250 or 500 nM in RLM microsomal incubations; assay type: biochemical, rat; settings: RLM 300 μg/ml; for RLM % inh. @ 500 nM: 500 nM compound; for RLM % inh. @ 250 nM: 250 nM compound
Summary of the method: (§1)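 Microsomes (300 μg/ml) or rCYP4F2 (25 pmol/mL) were incubated with 100 μM arachidonic acid, 1 mM NADPH and test compound in 0.12 M potassium phosphate with 5 mM MgCl2 for 20 min at 37° C. 20-HETE was quantified by UPLC-MS/MS with 20-HETE-d6 internal standard and expressed as percent of vehicle (n=3).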

[2] = tested on: 20-HETE formation (CYP4) in RKM; test: Inhibition of 20-HETE formation at 250 or 500 nM in RKM microsomal incubations; assay type: biochemical, rat; settings: RKM 300 μg/ml; for RKM % inh. @ 500 nM: 500 nM compound; for RKM % inh. @ 250 nM: 250 nM compound
Description: To screen the inhibitory effects against 20-HETE formation, compounds were screened in HLM, RLM, RKM and rCYP4F2 microsomal incubations. Compounds dissolved in either 100% methanol or 100% DMSO to yield 10 mM stock solution. Microsomal incubations containing HLM, RLM, RKM (300 μg/ml) or rCYP4F2 (25 pmol/mL), AA (100 μM), NADPH (1 mM) treated with test compounds at various concentrations (500 nM or 250 nM) in a 1 ml total volume in incubation buffer (0.12 M potassium phosphate buffer containing 5 mM magnesium chloride). Reaction was started by adding NADPH to the incubates and was carried out at 37° C. in a shaking water bath for 20 min. Reaction was stopped by placing tubes on ice, followed by adding 125 μl 20-HETE-d6 as internal standard to each sample. Microsomal incubations were extracted with 3 ml ethyl ether twice, dried down under nitrogen gas and reconstituted in 125 μl 80:20 methanol:deionized H2O for analysis. 20-HETE formation was quantified using a validated UPLC-MS/MS assay and normalized by vehicle group. Each compound had three replications (n=3). Vehicle group was used as control to calculate percentage of 20-HETE formation rate. HET0016 (250 nM) was used as positive control. Incubates without NADPH group served as the negative control. An Acquity ultra performance LC autosampler (Waters, Milford, MA) was used to isolate 20-HETE on an UPLC BEH C18, 1.7 μm (2.1×100 mm) reversed-phase column (Waters, Milford, MA) protected by a guard column (2.1×5 mm; Waters, Milford, MA) of the same packing material. Column temperature was maintained at 55° C. Mobile phases consisted of 0.005% acetic acid, 5% acetonitrile in deionized water (A) and 0.005% acetic acid in acetonitrile (B). The flow rate for mobile phases is 0.5 ml/min. The initial mixture of mobile phase was 65:35 of A and B. Mobile phase B increased at 0.4 minutes after injection from 35% to 70% in a linear gradient over 4 minutes, and again increased to 95% over 0.5 minutes where it remained for 0.3 minutes. This was followed by a linear return to initial conditions over 0.1 minutes with a 1.5 minute pre-equilibration period prior to the next sample run. Total run time was 6.4 minutes for each injection. Injection volumes were 7.5 μl. Mass spectrometric analysis was carried out using a TSQ Quantum Ultra (Thermo Fisher Scientific, San Jose, CA) triple quadrupole mass spectrometer using heated electrospray ionization (HESI). Mass spectrometer was operated in negative selective reaction monitoring (SRM) mode with unit resolutions at both Q1 and Q3 set at 0.70 Da full width at half maximum. Scan time was set at 0.01 s and collision gas pressure was 1.3 mTorr. Quantitation of 20-HETE by SRM was performed by monitoring the m/z. Analytical data was acquired and analyzed using Xcaliber 3.0 data system (ThermoFinnigan, San Jose, CA).

[3] = Turbidometric solubility determination; assay type: physicochemical; settings: PBS with 1% DMSO, aqueous buffer, kinetic from dmso stock, room temperature
Description: Solubility determinations shown in Table 3 were obtained turbidometrically and in a manner similar to the one described in Perez et al., J. Biomol. Screen, 2015, 20(2), 254-64. The method requires small volumes of 100× stock concentration drug solution to be prepared in DMSO 0, 0.23, 0.47, 0.94, 1.88, 3.75, 7.5, 15.0, 30.0 and […]. The stock drug concentrations are then diluted 1:100 added into triplicate wells containing PBS in a clear bottom 384 well microtiter to achieve final testing concentrations of 0, 2.3, 4.7, 9.4, 18.8, 37.5, 75, 150, 300, 600 μM in 1% DMSO. The plate is allowed to equilibrate with constant shaking for 2 hours at room temperature. The plate is then placed in a SpectroMax V plate reader to measure absorbance at 620 nm. Increase in absorbance is evident in test wells which precipitation of the compound is evident. The plot of OD620 vs. drug concentration is used to calculate the maximum solubility limit as determined by a statistically significant increase in absorbance above the background levels.

[4] = tested on: 20-HETE formation (CYP4) in HLM; test: Inhibition of 20-HETE formation at 250 or 500 nM in HLM microsomal incubations; assay type: biochemical, human; settings: HLM 300 μg/ml, AA 100 μM, 20 min; for HLM % inh. @ 500 nM: 500 nM compound; for HLM % inh. @ 250 nM: 250 nM compound
Summary of the method: as §1

rCYP4F2 = target: T1, rCYP4F2 (Homo sapiens, UniProt P78329); test: Inhibition of 20-HETE formation at 250 or 500 nM in rCYP4F2 incubations; assay type: biochemical; settings: rCYP4F2 25 pmol/mL; for inhibition at 0.5 µM: 500 nM compound, read-out: rCYP4F2 % inh. @ 500 nM; for inhibition at 0.25 µM: 250 nM compound, read-out: rCYP4F2 % inh. @ 250 nM
T1 sequence (P78329 5-520): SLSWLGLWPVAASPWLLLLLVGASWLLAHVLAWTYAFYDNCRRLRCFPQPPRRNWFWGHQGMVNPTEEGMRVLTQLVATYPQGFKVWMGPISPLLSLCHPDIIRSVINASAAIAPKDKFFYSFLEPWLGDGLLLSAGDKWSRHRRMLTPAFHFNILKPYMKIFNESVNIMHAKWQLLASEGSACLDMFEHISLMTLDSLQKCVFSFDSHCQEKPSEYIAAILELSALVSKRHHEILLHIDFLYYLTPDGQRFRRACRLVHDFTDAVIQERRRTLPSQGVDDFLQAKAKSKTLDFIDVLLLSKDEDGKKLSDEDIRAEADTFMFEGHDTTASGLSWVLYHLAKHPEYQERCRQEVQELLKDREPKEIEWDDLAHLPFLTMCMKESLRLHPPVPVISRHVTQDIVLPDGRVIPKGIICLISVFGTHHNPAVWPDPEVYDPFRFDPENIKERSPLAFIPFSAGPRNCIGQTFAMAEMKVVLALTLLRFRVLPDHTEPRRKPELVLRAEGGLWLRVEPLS
Summary of the method: as §1

SMILES | RLM % inh. @ 500 nM [1] [%] | RKM % inh. @ 500 nM [2] [%] | solubility at 2 h ([3]; OD620, read-out: Max Solub) [µM] | solubility at 2 h ([3]; read-out: Solubility_ug/mL) [mg/mL] | HLM % inh. @ 500 nM [4] [%] | inhibition at 0.5 µM (rCYP4F2) [%] | RLM % inh. @ 250 nM [1] [%] | RKM % inh. @ 250 nM [2] [%] | HLM % inh. @ 250 nM [4] [%] | inhibition at 0.25 µM (rCYP4F2) [%]
Fc1ccc(C2CCN(c3cn[nH]c3)CC2)cc1 [Compound 17, 4-(4-Fluorophenyl)-1-(1H-pyrazol-4-yl)piperidine] | 57.00 | 25.00 | – | – | 80.00 | 83 | – | – | – | –
O=S(=O)(c1ccccc1)C1CCN(c2cn[nH]c2)CC1 [Compound 42, 4-(Phenylsulfonyl)-1-(1H-pyrazol-4-yl)piperidine] | 0.00 | 0.00 | – | – | 5.00 | 28 | – | – | – | –
COc1cccc(CC2CCN(c3cn[nH]c3)CC2)c1 [Compound 45, 4-(3-Methoxybenzyl)-1-(1H-pyrazol-4-yl)piperidine] | 24.00 | 0.00 | – | – | 71.00 | 73 | – | – | – | –
c1cnc(N2CCN(c3cn[nH]c3)CC2)nc1 [Compound 4, 2-(4-(1H-Pyrazol-4-yl)piperazin-1-yl)pyrimidine] | 0.00 | 0.00 | – | – | 0.00 | 0 | – | – | – | –
c1ccc(N2CCN(c3ccn[nH]3)CC2)cc1 [Compound 53, 1-Phenyl-4-(1H-pyrazol-5-yl)piperazine] | – | – | – | – | – | – | 4.30 | 8.20 | 14.90 | 3.9
COc1ccc(N2CCN(c3cn[nH]c3)CC2)cc1 [Compound 6, 1-(4-Methoxyphenyl)-4-(1H-pyrazol-4-yl)piperazine] | 0.00 | 1.20 | – | – | 31.80 | 6.1 | – | – | – | –
CC(=O)N(C)c1ccc(C2CCN(c3cn[nH]c3)CC2)cn1 [Compound 13, N-(5-(1-(1H-Pyrazol-4-yl)piperidin-4-yl)pyridin-2-yl)-N-methylacetamide] | 3.00 | 27.00 | – | – | 29.00 | 1 | – | – | – | –
CC(=O)N(C)c1ccc(C2CCN(c3ccn[nH]3)CC2)cc1 [Compound 27, N-(4-(1-(1H-Pyrazol-5-yl)piperidin-4-yl)phenyl)-N-methylacetamide] | 8.00 | 0.00 | > 600 | 0.179 | 20.00 | 14 | – | – | – | –
c1cnc(C2CCN(c3cn[nH]c3)CC2)nc1 [Compound 10, 2-(1-(1H-Pyrazol-4-yl)piperidin-4-yl)pyrimidine] | 0.00 | 0.00 | – | – | 0.00 | 0 | – | – | – | –

More lines, now with the values ahead:

RLM % inh. @ 500 nM [1] [%] | RKM % inh. @ 500 nM [2] [%] | solubility at 2 h ([3]; OD620, read-out: Max Solub) [µM] | solubility at 2 h ([3]; read-out: Solubility_ug/mL) [mg/mL] | HLM % inh. @ 500 nM [4] [%] | inhibition at 0.5 µM (rCYP4F2) [%] | RLM % inh. @ 250 nM [1] [%] | RKM % inh. @ 250 nM [2] [%] | HLM % inh. @ 250 nM [4] [%] | inhibition at 0.25 µM (rCYP4F2) [%] | SMILES
0.00 | 0.00 | 369 | 0.108 | 32.00 | 0 | – | – | – | – | O=S(=O)(c1ccccc1)C1CCN(c2ccn[nH]2)CC1 [Compound 41, 4-(Phenylsulfonyl)-1-(1H-pyrazol-5-yl)piperidine]
0.00 | 4.00 | – | – | 20.00 | 20 | – | – | – | – | Cc1ccccc1C1CCN(c2ccn[nH]2)CC1 [Compound 35, 1-(1H-Pyrazol-5-yl)-4-(o-tolyl)piperidine]
0.00 | 0.00 | – | – | 0.00 | 0 | – | – | – | – | c1cnc(C2CCN(c3ccn[nH]3)CC2)nc1 [Compound 9, 2-(1-(1H-Pyrazol-5-yl)piperidin-4-yl)pyrimidine]
0.00 | 9.00 | > 600 | 0.155 | 35.00 | 44 | – | – | – | – | COc1ccc(C2CCN(c3ccn[nH]3)CC2)cn1 [Compound 31, 5-(1-(1H-Pyrazol-5-yl)piperidin-4-yl)-2-methoxypyridine]
– | – | – | – | – | – | 0.00 | 0.00 | 12.11 | 0 | c1ccc(OC2CCN(c3ccn[nH]3)CC2)cc1 [Compound 55, 4-Phenoxy-1-(1H-pyrazol-5-yl)piperidine]
0.00 | 8.00 | – | – | 67.00 | 63 | – | – | – | – | Fc1cccc(C2CCN(c3ccn[nH]3)CC2)c1 [Compound 48, 4-(3-Fluorophenyl)-1-(1H-pyrazol-5-yl)piperidine]
3.60 | 1.60 | – | – | 0.00 | 66.5 | – | – | – | – | COC(=O)c1ccc(C2CCN(c3ccn[nH]3)CC2)cc1 [Compound 11, Methyl 4-(1-(1H-pyrazol-5-yl)piperidin-4-yl)benzoate]
47.00 | 0.00 | – | – | 78.00 | 88 | – | – | – | – | COc1ccc(C2CCN(c3ccn[nH]3)CC2)c(F)c1 [Compound 46, 4-(2-Fluoro-4-methoxyphenyl)-1-(1H-pyrazol-5-yl)piperidine]

— patent US12479816B2, “20-HETE formation inhibitors” (UNIVERSITY OF PITTSBURGH—OF THE COMMONWEALTH SYSTEM OF …, priority 2019, dated 2025)
